Measurements taken from patent publication US20110152090A1, “HERBICIDAL COMPOSITIONS COMPRISING FLUFENACET” (Bayer CropScience AG, priority 2009, published 2011).

Experiments:
Format in all cases: in vivo
[1] = test system: TRZAS (Triticum aestivum, summer wheat); assay: Greenhouse trial: pre-sowing application vs PE application (test method 6), crop, pre-sowing part; conditions: Triticum aestivum (summer wheat), in vivo
Procedure: (§1) In the standard design of the test, seeds of various broad-leaved weed and weed grass biotypes (origins) were sown in a 8-13 cm diameter pot filled with natural soil of a standard field soil (loamy silt; non-sterile) and covered with a covering soil layer of about 1 cm. The pots were then cultivated in a greenhouse (12-16 h of light, temperature day 20-22° C., night 15-18° C.) until the time of application. The pots were treated on a laboratory track sprayer with spray liquors comprising the compositions according to the invention, mixtures of the prior art or components used individually. Application of the active compounds or active compound combinations formulated as WG, WP, EC or otherwise was carried out at the appropriate growth stages of the plants. The application rate for the spray application was 100-600 l of water/ha. After the treatment, the plants were returned to the greenhouses.
(§2) About 3 weeks after the application, the soil action or/and foliar action was assessed visually according to a scale of 0-100% in comparison to an untreated comparative group: 0%=no noticeable effect compared to the untreated comparative group; 100%=full effect compared to the untreated comparative group.
(§3) (notes: the term “seeds” also includes vegetative propagation forms such as, for example, rhizome pieces; abbreviations used: h light=hours of illumination, g of AS/ha=gram of active substance per hectare, l/ha=liter per hectare, S=sensitive, R=resistant) • 1. Pre-emergence action against weeds: seeds of various broad-leaved weed and weed grass biotypes (origins) were sown in a 8-13 cm diameter pot filled with natural soil of a standard field soil (loamy silt; non-sterile) and covered with a covering soil layer of about 1 cm. The pots were then cultivated in a greenhouse (12-16 h of light, temperature day 20-22° C., night 15-18° C.) until the time of application. […]

LOLPE (Lolium perenne) [2] = assay: Greenhouse trial: different irrigation systems (test method 7); conditions: g of AS/ha: (A) 120, (B) 1200, (C) 90
Procedure: as §1, §2
(§4) (notes: the term “seeds” also includes vegetative propagation forms such as, for example, rhizome pieces; abbreviations used: h light=hours of illumination, g of AS/ha=gram of active substance per hectare, l/ha=liter per hectare, S=sensitive, R=resistant) • 1. Pre-emergence action against weeds: seeds of various broad-leaved weed and weed grass biotypes (origins) were sown in a 8-13 cm diameter pot filled with natural soil of a standard field soil (loamy silt; non-sterile) and covered with a covering soil layer of about 1 cm. The pots were then cultivated in a greenhouse (12-16 h of light, temperature day 20-22° C., night 15-18° C.) until the time of application. The pots were treated at the BBCH stage 00-10 of the seeds/plants on a laboratory track sprayer with spray liquors comprising the compositions according to the invention, mixtures or components used individually, as WG, WP, EC or other formulations. The application rate for the spray application was 100-600 l of water/ha. After the treatment, the plants were returned to the greenhouses and, when required, treated with fertilizer and watered. • 2. Post-emergence action against weeds: seeds of various broad-leaved weed and weed grass biotypes (origins) were sown in a 8-13 cm diameter pot filled with natural soil of a standard field soil (loamy silt; non-sterile) and covered with a covering soil layer of about 1 cm. The pots were then cultivated in a greenhouse (12-16 h of light, temperature day 20-22° C., night 15-18° C.) until the time of application. The pots were treated at various BBCH stages between 11-25 of the seeds/plants, i.e. generally between two to three weeks after the start of the cultivation, on a laboratory track sprayer with spray liquors comprising the compositions according to the invention, mixtures or components used individually, as WG, WP, EC or other formulations. The application rate for the spray application was 100-600 l of water/ha. After the treatment, the plants were returned to the greenhouses and, when required, treated with fertilizer and watered. • 3. Pre-emergence action against weeds with and without incorporation of active compound: seeds of various broad-leaved weed and weed grass biotypes (origins) were sown in a 8-13 cm diameter pot filled with natural soil of a standard field soil (loamy silt; non-sterile). […]

AVEFA (Avena fatua) [3] = assay: as above; conditions: g of AS/ha: (A) 120, (B) 1200, (C) 90
Procedure: as §1, §2, §4

[4] = test system: MATCH (Matricaria chamomilla); assay: as above; conditions: g of AS/ha: (A) 120, (B) 1200, (C) 90
Procedure: as §1, §2, §4

POAAN (Poa annua) [5] = assay: Greenhouse trial: PE soil application vs incorporation into the soil (test methods 1, 3); conditions: g of AS/ha: (A) 90, (B) 1200, (C) 90, (D) 300
Procedure: as §1, §2, §4

STEME (Stellaria media) [6] = assay: as above; conditions: g of AS/ha: (A) 90, (B) 1200, (C) 90, (D) 300
Procedure: as §1, §2, §4

LOLPE (Lolium perenne) [7] = assay: Greenhouse trial: pre-sowing application vs PE application (test method 6)
Procedure: as §1, §2, §4

AVEFA (Avena fatua) [8] = assay: as above
Procedure: as §1, §2, §4

LOLPE (Lolium perenne) [9] = assay: Greenhouse trial: different soil types (test method 8); conditions: g of AS/ha: (A) 120, (B) 1200, (C) 90
Procedure: as §1, §2, §4

[10] = test system: MATCH (Matricaria chamomilla); assay: as above; conditions: g of AS/ha: (A) 120, (B) 1200, (C) 90; for Difference of the soil types, MATCH: IU/EC73 soil vs IU soil
Procedure: as §1, §2, §4

[11] = test system: HORVS (Hordeum vulgare, summer barley); assay: Greenhouse trial: selective PO action (test method 5); conditions: Hordeum vulgare (summer barley), in vivo, po
Procedure: as §1, §2, §3

[12] = test system: HORVS (Hordeum vulgare, summer barley); assay: Greenhouse trial: pre-sowing application vs PE application (test method 6), crop, PE part; conditions: Hordeum vulgare (summer barley), in vivo
Procedure: as §1, §2, §3

[13] = test system: HORVS (Hordeum vulgare, summer barley); assay: Greenhouse trial: different soil types (test method 8), crop; conditions: Hordeum vulgare (summer barley), in vivo
Procedure: as §1, §2, §4

[14] = test system: APESV (Apera Spica-venti); assay: Greenhouse trial: different sowing depths, PE application (test method 10); conditions: g of AS/ha: (A) 90, (B) 1200, (C) 90; for activity APESV 5 mm (visual scale 0-100%): sowing depth 5 mm; for activity APESV 20 mm (visual scale 0-100%): sowing depth 20 mm
Procedure: as §1, §2, §4

[15] = test system: MATCH (Matricaria chamomilla); assay: as above; conditions: g of AS/ha: (A) 90, (B) 1200, (C) 90; for activity MATCH 5 mm (visual scale 0-100%): sowing depth 5 mm; for activity MATCH 20 mm (visual scale 0-100%): sowing depth 20 mm
Procedure: as §1, §2, §4

[16] = test system: LOLSS (Lolium species), sensitive and resistant; assay: Greenhouse trial: resistant biotypes, PE application (test method 9); conditions: g of AS/ha: (A) 90, (B) 1200, (C) 90, iodosulfuron 10; for activity LOLSS resistant (visual scale 0-100%): resistant biotype; for activity LOLSS sensitive (visual scale 0-100%): sensitive biotype
Procedure: as §1, §2, §4

[17] = test system: MATCH (Matricaria chamomilla), sensitive and resistant; assay: as above; conditions: g of AS/ha: (A) 90, (B) 1200, (C) 90, iodosulfuron 10; for activity MATCH resistant (visual scale 0-100%): resistant biotype; for activity MATCH sensitive (visual scale 0-100%): sensitive biotype
Procedure: as §1, §2, §4

[18] = test system: STEME (Stellaria media), sensitive and resistant; assay: as above; conditions: g of AS/ha: (A) 90, (B) 1200, (C) 90, iodosulfuron 10; for activity STEME resistant (visual scale 0-100%): resistant biotype; for activity STEME sensitive (visual scale 0-100%): sensitive biotype
Procedure: as §1, §2, §4

[19] = test system: APESV (Apera Spica-venti); assay: Greenhouse trial: PO application (test method 2); conditions: g of AS/ha: (A) 120, (B) 1600, (C) 120
Procedure: as §1, §2, §4

POAAN (Poa annua) [20] = assay: Greenhouse trial: PO application (test method 2); conditions: g of AS/ha: (A) 120, (B) 1600, (C) 120
Procedure: as §1, §2, §4

STEME (Stellaria media) [21] = assay: Greenhouse trial: PO application (test method 2); conditions: g of AS/ha: (A) 120, (B) 1600, (C) 120
Procedure: as §1, §2, §4

[22] = PE application, g of AS/ha: (A) 90, (B) 1200, (C) 90
[23] = application 7 days prior to sowing, g AS/ha: (A) 90, (B) 1200, (C) 90

| SMILES | activity on crop TRZAS (visual scale 0-100%) [1] [%] | activity LOLPE (visual scale 0-100%) (LOLPE (Lolium perenne) [2]; irrigation from above) [%] | activity LOLPE (visual scale 0-100%) (LOLPE (Lolium perenne) [2]; irrigation from below) [%] | activity AVEFA (visual scale 0-100%) (AVEFA (Avena fatua) [3]; irrigation from above) [%] | activity AVEFA (visual scale 0-100%) (AVEFA (Avena fatua) [3]; irrigation from below) [%] | activity MATCH (visual scale 0-100%) ([4]; irrigation from above) [%] | activity MATCH (visual scale 0-100%) ([4]; irrigation from below) [%] | activity POAAN (visual scale 0-100%) (POAAN (Poa annua) [5]; PE application) [%] | activity STEME (visual scale 0-100%) (STEME (Stellaria media) [6]; PE application) [%] | activity STEME (visual scale 0-100%) (STEME (Stellaria media) [6]; incorporation into the soil) [%] | activity LOLPE (visual scale 0-100%) (LOLPE (Lolium perenne) [7]; [22]) [%] | activity LOLPE (visual scale 0-100%) (LOLPE (Lolium perenne) [7]; [23]) [%] | activity AVEFA (visual scale 0-100%) (AVEFA (Avena fatua) [8]; [22]) [%] | activity AVEFA (visual scale 0-100%) (AVEFA (Avena fatua) [8]; [23]) [%] | activity LOLSS resistant (visual scale 0-100%) [16] [%] | activity LOLSS sensitive (visual scale 0-100%) [16] [%] | activity MATCH resistant (visual scale 0-100%) [17] [%] | activity MATCH sensitive (visual scale 0-100%) [17] [%] | activity STEME resistant (visual scale 0-100%) [18] [%] | activity STEME sensitive (visual scale 0-100%) [18] [%] | also measured |
| --- | --- | --- | --- | --- | --- | --- | --- | --- | --- | --- | --- | --- | --- | --- | --- | --- | --- | --- | --- | --- | --- |
| CCCN(CCC)C(=O)SCc1ccccc1 [(B) prosulfocarb, S-(phenylmethyl) dipropylcarbamothioate] | 20 | 10 | 5 | 5 | 10 | 0 | 0 | 35 | 30 | 65 | 5 | 0 | 10 | 10 | 65 | 85 | 25 | 0 | 40 | 70 | activity LOLPE IU soil (visual scale 0-100%) (LOLPE (Lolium perenne) [9]): 33%; activity LOLPE IU/EC73 soil (visual scale 0-100%) (LOLPE (Lolium perenne) [9]): 0%; activity MATCH IU soil (visual scale 0-100%) [10]: 10%; Difference of the soil types, MATCH [10]: −10%; activity MATCH IU/EC73 soil (visual scale 0-100%) [10]: 0%; activity on crop HORVS (visual scale 0-100%) [11]: 30%; activity on crop HORVS (visual scale 0-100%) [12]: 15%; Difference Δ^D of the soil types, HORVS [13]: Δ^D + 3%; activity on crop HORVS IU soil (visual scale 0-100%) [13]: 0%; activity on crop HORVS IU/EC73 soil (visual scale 0-100%) [13]: 3%; activity APESV 5 mm (visual scale 0-100%) [14]: 50%; activity APESV 20 mm (visual scale 0-100%) [14]: 20%; activity MATCH 5 mm (visual scale 0-100%) [15]: 0%; activity MATCH 20 mm (visual scale 0-100%) [15]: 0%; activity APESV (visual scale 0-100%) [19]: 20%; activity POAAN (visual scale 0-100%) (POAAN (Poa annua) [20]): 30%; activity STEME (visual scale 0-100%) (STEME (Stellaria media) [21]): 30% |
| CC(C)N(C(=O)COc1nnc(C(F)(F)F)s1)c1ccc(F)cc1 [(A) flufenacet, N-(4-fluorophenyl)-N-(1-methylethyl)-2-[[5-(trifluoromethyl)-1,3,4-thiadiazol-2-yl]oxy]acetamide] | 40 | 80 | 78 | 85 | 50 | 49 | 35 | 70 | 0 | 20 | 75 | 80 | 63 | 70 | 10 | 85 | 30 | 30 | 0 | 0 | activity POAAN (visual scale 0-100%) (POAAN (Poa annua) [5]; incorporation into the soil): 100%; activity LOLPE IU soil (visual scale 0-100%) (LOLPE (Lolium perenne) [9]): 97%; activity LOLPE IU/EC73 soil (visual scale 0-100%) (LOLPE (Lolium perenne) [9]): 75%; activity MATCH IU soil (visual scale 0-100%) [10]: 80%; Difference of the soil types, MATCH [10]: −75%; activity MATCH IU/EC73 soil (visual scale 0-100%) [10]: 5%; activity on crop HORVS (visual scale 0-100%) [11]: 40%; activity on crop HORVS (visual scale 0-100%) [12]: 80%; Difference Δ^D of the soil types, HORVS [13]: Δ^D − 10%; activity on crop HORVS IU soil (visual scale 0-100%) [13]: 10%; activity on crop HORVS IU/EC73 soil (visual scale 0-100%) [13]: 0%; activity APESV 5 mm (visual scale 0-100%) [14]: 65%; activity APESV 20 mm (visual scale 0-100%) [14]: 70%; activity MATCH 5 mm (visual scale 0-100%) [15]: 30%; activity MATCH 20 mm (visual scale 0-100%) [15]: 30%; activity APESV (visual scale 0-100%) [19]: 60%; activity POAAN (visual scale 0-100%) (POAAN (Poa annua) [20]): 60%; activity STEME (visual scale 0-100%) (STEME (Stellaria media) [21]): 30% |
| COc1nc(C)nc(NC(=O)NS(=O)(=O)c2cc(I)ccc2C(=O)O)n1 [iodosulfuron] |  |  |  |  |  |  |  |  |  |  |  |  |  |  | 50 | 98 | 60 | 100 | 40 | 90 |  |
